According to patent US7173151B2, “Cycloalkyl-substituted alkanoic acid derivatives, processes for their preparation and their use as pharmaceuticals” (Sanofi-AventisDeutschand GmbH, priority 2003, dated 2007):

The molecules below were run against T1, GR-GAL4-humanPPARalpha-LBD (Homo sapiens, UniProt Q07869) (assay: Cellular PPARalpha assay (luciferase reporter, stably transfected HEK cell line)).
T1 construct: amino acids S167–Y468; expressed in transfected cells; host or cells: HEK cells, stably transfected (pcDNA3, CMV promoter)
T1 sequence (Q07869 167-468): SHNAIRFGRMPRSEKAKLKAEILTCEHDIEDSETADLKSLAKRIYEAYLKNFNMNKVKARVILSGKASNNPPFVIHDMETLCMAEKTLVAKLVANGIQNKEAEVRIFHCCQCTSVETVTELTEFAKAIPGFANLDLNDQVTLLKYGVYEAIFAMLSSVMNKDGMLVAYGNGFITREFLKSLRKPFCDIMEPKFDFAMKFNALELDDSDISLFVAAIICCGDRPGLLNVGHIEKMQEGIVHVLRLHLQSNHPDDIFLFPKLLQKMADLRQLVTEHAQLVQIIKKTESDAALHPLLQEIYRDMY
Format: cell-based
Method: Determination of EC50 Values of PPAR Agonists in the Cellular PPARalpha Assay
The potency of substances which bind to human PPARalpha and activate in an agonistic manner is analyzed using a stably transfected HEK cell line (HEK=human embryo kidney) which is referred to here as PPARalpha reporter cell line. It contains two genetic elements, a luciferase reporter element (pdeltaM-GAL4-Luc-Zeo) and a PPARalpha fusion protein (GR-GAL4-humanPPARalpha-LBD) which mediates expression of the luciferase reporter element depending on a PPARalpha ligand. The stably and constitutively expressed fusion protein GR-GAL4-humanPPARalpha-LBD binds in the cell nucleus of the PPARalpha reporter cell line via the GAL4 protein portion to the GAL4 DNA binding motifs 5′-upstream of the luciferase reporter element which is integrated in the genome of the cell line. There is only little expression of the luciferase reporter gene without addition of a PPARalpha ligand if fatty acid-depleted fetal calf serum (cs-FCS) is used in the assay. PPARalpha ligands bind and activate the PPARalpha fusion protein and thereby bring about expression of the luciferase reporter gene. The luciferase which is formed can be detected by means of chemiluminescence via an appropriate substrate.
The PPARalpha reporter cell line was prepared in 2 stages. Firstly, the luciferase reporter element was constructed and stably transfected into HEK cells. For this purpose, five binding sites of the yeast transcription factor GAL4 (each 5′-CGGAGTACTGTCCTCCGAG-3′) (SEQ ID No. 1) were cloned in 5′-upstream of a 68 bp-long minimal MMTV promoter (Genbank Accession #V01175). The minimal MMTV promoter section contains a CCAAT box and a TATA element in order to enable efficient transcription by RNA polymerase II. The cloning and sequencing of the GAL4-MMTV construct took place in analogy to the description of Sambrook J. et. al. (Molecular cloning, Cold Spring Harbor Laboratory Press, 1989). Then the complete Photinus pyralis gene (Genbank Accession #M15077) was cloned in 3′-downstream of the GAL4-MMTV element. After sequencing, the luceriferase reporter element consisting of five GAL4 binding sites, MMTV promoter and luciferase gene was recloned into a plasmid which confers zeocin resistance in order to obtain the plasmid pdeltaM-GAL4-Luc-Zeo. This vector was transfected into HEK cells in accordance with the statements in Ausubel, F. M. et al. (Current protocols in molecular biology, Vol. 1–3, John Wiley & Sons, Inc., 1995).
In a second step, the PPARalpha fusion protein (GR-GAL4-humanPPARalpha-LBD) was introduced into the stable cell clone described. For this purpose, initially the cDNA coding for the N-terminal 76 amino acids of the glucocorticoid receptor (Genbank Accession #P04150) was linked to the cDNA section coding for amino acids 1–147 of the yeast transcription factor GAL4 (Genbank Accession #P04386). The cDNA of the ligand-binding domain of the human PPARalpha receptor (amino acids S167–Y468; Genbank Accession #S74349) was cloned in at the 3′-end of this GR-GAL4 construct. The fusion construct prepared in this way (GR-GAL4-humanPPARalpha-LBD) was recloned into the plasmid pcDNA3 (from Invitrogen) in order to enable constitutive expression therein by the cytomegalovirus promoter. This plasmid was linearized with a restriction endonuclease and stably transfected into the previously described cell clone containing the luciferase reporter element. The finished PPARalpha reporter cell line which contains a luciferase reporter element and constitutively expresses the PPARalpha fusion protein (GR-GAL4-human PPARalpha-LBD) was isolated by selection with zeocin (0.5 mg/ml) and G418 (0.5 mg/ml).
The activity of PPARalpha agonists is determined in a 3-day assay which is described below: […]

SMILES	EC50 [nM]
CCCCNC(=O)N(CCO[C@@H]1CCC[C@H](CCC(C)(C)C(=O)O)C1)Cc1ccc(C)cc1 (relative stereo) [Example 10, 4-(cis-3-{2-[3-butyl-1-(4-methylbenzyl)ureido]ethoxy}cyclohexyl)-2,2-dimethylbutyric acid]	74
CCCCCCCN(CCO[C@@H]1CCC[C@H](CCC(CC)C(=O)O)C1)C(=O)NCCCC (relative stereo) [Example 2, 4-{cis-3-[2-(3-butyl-1-heptylureido)ethoxy]cyclohexyl}-2-ethylbutyric acid]	1
CCCCCCCN(CCO[C@@H]1CCC[C@H](CCC(C(=O)O)C(C)C)C1)C(=O)NCCCC (relative stereo) [Example 5, 2-(2-{cis-3-[2-(3-butyl-1-heptylureido)ethoxy]cyclohexyl}ethyl)-3-methylbutyric acid]	0.38
CCCCCCCN(CCO[C@@H]1CCC[C@H](CCC(CC)C(=O)O)C1)C(=O)NC1CCCCC1 (relative stereo) [Example 3, 4-{cis-3-[2-(3-cyclohexyl-1-heptylureido)ethoxy]cyclohexyl}-2-ethylbutyric acid]	0.56
CCCCCCCN(CCO[C@@H]1CCC[C@H](CCC(C)(C)C(=O)O)C1)C(=O)NC1CCCCC1 (racemic) [Example 11, 4-{cis-3-[2-(3-cyclohexyl-1-heptylureido)ethoxy]cyclohexyl}-2,2-dimethylbutyrate]	28
CCC(CCC1CCCC(OCCN(Cc2ccc(C)cc2)C(=O)NC2CCCCC2)C1)C(=O)O (racemic) [Example 1, 4-(cis-3-{2-[3-cyclohexyl-1-(4-methylbenzyl)ureido]ethoxy}cyclohexyl)-2-ethylbutyric acid]	1.1
CCCCCCCN(CCOC1CCCC(CCC(C)(C)C(=O)O)C1)C(=O)NCCCC (racemic) [Example 9, 4-{cis-3-[2-(3-butyl-1-heptylureido)ethoxy]cyclohexyl)-2,2-dimethylbutyric acid]	8.8
